Data taken from US6875438B2, “Preparations for topical administration of substances having antiandrogenic activity” (Aventis Pharma Deutschland GmbH, priority 2002, dated 2005).

Assays:
[1] = test system: cells of the dermal papilla of occipital scalp; experiment: Hydrolysis of compound 2 to compound 1 in cultivated dermal papilla cells (HPLC of media extracts); assay type: in vitro ADME, human; conditions: skin cells, in particular cells of the dermal papilla
Description: Monolayer cultures of juvenile prepuce keratinocytes and fibroblasts and of cells of the dermal papilla of occipital scalp were incubated with compound 2 in a concentration of 10^−5 M under standard conditions (5% CO2, 37° C.) for 24 h. The cell culture medium was then extracted with chloroform. The organic phase was evaporated and the residue was taken up in acetonitrile and investigated by HPLC analysis for its content of compounds 1 and 2.

[2] = Microscopic investigations for crystallization of active ingredient in the preparation; assay type: physicochemical; conditions: lipid nanoparticle preparations

For `CCCCCCCCCCCCCC(=O)OCCCCN1C(=O)N(c2ccc(C#N)c(C(F)(F)F)c2)C(=O)C1(C)C` [compound 2], the “Conversion of compound 2 into compound 1 (in words)” value [1] was “significant conversion” and the “Crystallization of compound 2 in the preparation (microscopy)” value [2] was “no indications of crystallization”.
